Drawing on patent US11142527B2, “Dihydropyrimidine compounds and uses thereof in medicine” (SUNSHINE LAKE PHARMA CO., LTD., priority 2017, dated 2021), this text covers EC50 and CC50 for 13 compounds.

Where only a bound is given, the exact number is not on record here.

One data set has as its system HBV. The experiment in a line: Test of anti HBV activity in vitro (viral DNA by qPCR). It is filed as cell-based. To be noted: Hepatitis B virus; HepG2.2.15 cells, viral DNA in cell culture supernatant by qPCR; read-out: EC50 values of the compound of the invention on viral replication. Summed up: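 HepG2.2.15 cells (integrated HBV genome) were grown to confluence, then treated with compound in 4-fold dilutions from 4 μM final (0.5% DMSO). Secreted viral DNA in supernatant was quantified by SYBR qPCR against an HBV plasmid standard curve; EC50 from four-parameter nonlinear regression of concentration versus copy number.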
A general note: Quantitative PCR measures a nucleic acid by following its amplification.

Data set [1] in a line: Cytotoxicity test with CellTiter Glo. The following applies: human, HepG2.2.15 cells, highest concentration 150 μM, read-out: CC50 values of the compounds of the invention. The format is cell-based. As for the experimental part: Test 2: Cytotoxicity and Selectivity Index
Methods of Testing Cytotoxicity and Selectivity Index
The serial diluted compound was added to a 384 wells plate at 50 μL HepG2.2.15 cell per well (3000 cells per well), the highest final concentration in the experiment is 150 μM (200 fold dilution). The plate was cultured at 37° C. in an incubator with CO2 for 4 days, and cytotoxicity of the compound was detected using CellTiter Glo agent.
The cytotoxicity of the compound was calculated using the following formulate, cytotoxicity (%)=100−(detection value/mean of DMSO control wells values×100) CC50 values were calculated by a four parametric nonlinear regression model using Graphpad Prism 5 software to manage concentration−cytotoxicity (%).
(In ATP-based viability assays light output follows the ATP content of the culture.)

What is called EC50 is the midpoint of the concentration-response curve. What is called CC50 is the concentration that lowers cell viability or growth by half. With `COC(=O)C1=C(CN2CCN3C(=O)N(c4ccc(Oc5ccc(C(=O)N6CCOCC6)cc5)cc4)C[C@@H]3C2)NC(c2nccs2)=N[C@H]1c1ccc(F)cc1Cl` [Example 56, (R)-methyl 4-(2-chloro-4-fluorophenyl)-6-(((S)-2-(4-(4-(morpholine-4-carbonyl)phenoxy)phenyl)-3-oxohexahydroimidazo[1,5-a]pyrazin-7(1H)-yl)methyl)-2-(thiazol-2-yl)-1,4-dihydropyrimidine-5-carboxylate], the EC50 with HBV stood at 0.0124 µM. The CC50 at 4 days in data set [1] was over 150 µM. On to `COC(=O)C1=C(CN2CCN3C(=O)N(c4cc(F)cc(Oc5ccc(C(=O)O)cc5F)c4)C[C@@H]3C2)NC(c2nccs2)=N[C@H]1c1cccc(F)c1Cl` [Example 90, 4-(3-((S)-7-(((R)-6-(2-chloro-3-fluorophenyl)-5-(methoxycarbonyl)-2-(thiazol-2-yl)-3,6-dihydropyrimidin-4-yl)methyl)-3-oxohexahydroimidazo[1,5-a]pyrazin-2(3H)-yl)-5-fluorophenoxy)-3-fluorobenzoic acid], for which the EC50 in the data set on HBV is 0.0125 µM. In addition, the half-maximal cytotoxic concentration (CC50) at 4 days in data set [1] is over 150 µM. In the case of `COC(=O)C1=C(CN2CCN3C(=O)N(c4ccc(Oc5ccc(C(=O)N(CCO)Cc6ccccc6)cc5)cc4)C[C@@H]3C2)NC(c2nccs2)=N[C@H]1c1ccc(F)cc1Cl` [Example 63, (R)-methyl 6-(((S)-2-(4-(4-(benzyl(2-hydroxyethyl)carbamoyl)phenoxy)phenyl)-3-oxohexahydroimidazo[1,5-a]pyrazin-7(1H)-yl)methyl)-4-(2-chloro-4-fluorophenyl)-2-(thiazol-2-yl)-1,4-dihydropyrimidine-5-carboxylate], the EC50 in the data set with HBV amounted to 0.0276 µM. Also, in data set [1], the CC50 at 4 days was over 150 µM. For `COC(=O)C1=C(CN2CCN3C(=O)N(c4ccc(Oc5ccc(C(=O)N6CC(O)C6)cc5)cc4)C[C@@H]3C2)NC(c2nccs2)=N[C@H]1c1ccc(F)cc1Cl` [Example 61, (R)-methyl 4-(2-chloro-4-fluorophenyl)-6-(((S)-2-(4-(4-(3-hydroxyazetidine-1-carbonyl)phenoxy)phenyl)-3-oxohexahydroimidazo[1,5-a]pyrazin-7(1H)-yl)methyl)-2-(thiazol-2-yl)-1,4-dihydropyrimidine-5-carboxylate] the same measures were 0.015 µM and over 150 µM. In the same order, the values of `COC(=O)C1=C(CN2CCN3C(=O)N(c4nc(-c5ccc(C(C)(C)C(=O)O)cc5)cs4)C[C@@H]3C2)NC(c2nccs2)=N[C@H]1c1ccc(F)cc1Cl` [Example 17, 2-(4-(2-((S)-7-(((R)-6-(2-chloro-4-fluorophenyl)-5-(methoxycarbonyl)-2-(thiazol-2-yl)-3,6-dihydropyrimidin-4-yl)methyl)-3-oxohexahydroimidazo[1,5-a]pyrazin-2(3H)-yl)thiazol-4-yl)phenyl)-2-methylpropionic acid] are 0.006 µM and over 150 µM. `COC(=O)C1=C(CN2CCN3C(=O)N(c4ccc(Oc5ccc(OC)cc5)cc4)C[C@@H]3C2)NC(c2nccs2)=N[C@H]1c1ccc(F)cc1Cl` [Example 103, (R)-methyl 4-(2-chloro-4-fluorophenyl)-6-(((S)-2-(4-(4-methoxyphenoxy)phenyl)-3-oxohexahydroimidazo[1,5-a]pyrazin-7(1H)-yl)methyl)-2-me (thiazol-2-yl)-1,4-dihydropyrimidine-5-carboxylate]: the EC50 in the data set with HBV was determined as 0.0194 µM. Further, the half-maximal cytotoxic concentration (CC50) at 4 days in data set [1] was over 150 µM. On to `COC(=O)C1=C(CN2CCN3C(=O)N(c4ccc(Sc5ccc(C#N)cc5)cc4)C[C@@H]3C2)NC(c2nccs2)=N[C@H]1c1ccc(F)cc1Cl` [Example 98, (R)-methyl 4-(2-chloro-4-fluorophenyl)-6-(((S)-2-(4-((4-cyanophenyl)thio)phenyl)-3-oxohexahydroimidazo[1,5-a]pyrazin-7(1H)-yl)methyl)-2-me (thiazol-2-yl)-1,4-dihydropyrimidine-5-carboxylate], for which, in the data set with HBV, the EC50 stood at 0.0119 µM. Moreover, the CC50 at 4 days in data set [1] is over 150 µM. In the same order, the values of `COC(=O)C1=C(CN2CCN3C(=O)N(CCC#Cc4ccc(C(=O)O)cc4)C[C@@H]3C2)NC(c2nccs2)=N[C@H]1c1ccc(F)cc1Cl` [Example 54, 4-(4-((S)-7-(((R)-6-(2-chloro-4-fluorophenyl)-5-(methoxycarbonyl)-2-(thiazol-2-yl)-3,6-dihydropyrimidin-4-yl)methyl)-3-oxohexahydroimidazo[1,5-a]pyrazin-2(3H)-yl)but-1-yn-1-yl)benzoic acid] are 0.0613 µM and over 150 µM. In the case of `COC(=O)C1=C(CN2CCN3C(=O)N(c4ccc(Oc5ccc(C(=O)N6CCCC6(F)F)cc5)cc4)C[C@@H]3C2)NC(c2nccs2)=N[C@H]1c1ccc(F)cc1Cl` [Example 57, (R)-methyl 4-(2-chloro-4-fluorophenyl)-6-(((S)-2-(4-(4-(2,2-difluoropyrrolidine-1-carbonyl)phenoxy)phenyl)-3-oxohexahydroimidazo[1,5-a]pyrazin-7(1H)-yl)methyl)-2-(thiazol-2-yl)-1,4-dihydropyrimidine-5-carboxylate], the EC50 in the data set with HBV was 0.0281 µM. The CC50 at 4 days in data set [1] was over 150 µM.

As for `COC(=O)C1=C(CN2CCN3C(=O)N(c4ccc(Oc5ccc(C(=O)NC(C)(C)CO)cc5)cc4)C[C@@H]3C2)NC(c2nccs2)=N[C@H]1c1ccc(F)cc1Cl` [Example 68, (R)-methyl 4-(2-chloro-4-fluorophenyl)-6-(((S)-2-(4-(4-((1-hydroxy-2-methylprop-2-yl)carbamoyl)phenoxy)phenyl)-3-oxohexahydroimidazo[1,5-a]pyrazin-7(1H)-yl)methyl)-2-(thiazol-2-yl)-1,4-dihydropyrimidine-5-carboxylate], in the data set with HBV, the EC50 came out at 0.0111 µM. The CC50 at 4 days in data set [1] is over 150 µM. Consider `COC(=O)C1=C(CN2CCN3C(=O)N(c4ccc(Oc5ccc(C(=O)NCc6ccccc6Cl)cc5)cc4)C[C@@H]3C2)NC(c2nccs2)=N[C@H]1c1ccc(F)cc1Cl` [Example 62, (R)-methyl 4-(2-chloro-4-fluorophenyl)-6-(((S)-2-(4-(4-((2-chlorobenzyl)carbamoyl)phenoxy)phenyl)-3-oxohexahydroimidazo[1,5-a]pyrazin-7(1H)-yl)methyl)-2-(thiazol-2-yl)-1,4-dihydropyrimidine-5-carboxylate], for which the CC50 at 4 days in data set [1] is over 150 µM. For `COC(=O)C1=C(CN2CCN3C(=O)N(c4ccc(Oc5ccc(OCC(F)(F)F)cc5)cc4)C[C@@H]3C2)NC(c2nccs2)=N[C@H]1c1ccc(F)cc1Cl` [Example 104, (R)-methyl 4-(2-chloro-4-fluorophenyl)-6-(((S)-3-oxo-2-(4-(4-(2,2,2-trifluoroethoxy)phenoxy)phenyl)hexahydroimidazo[1,5-a]pyrazin-7(1H)-yl)methyl)-2-(thiazol-2-yl)-1,4-dihydropyrimidine-5-carboxylate], the CC50 at 4 days in data set [1] is over 150 µM. On the same count and under the same terms, the figure for `COC(=O)C1=C(CN2CCN3C(=O)N(c4ccc(Oc5ccc(C(=O)N6CCOC[C@@H]6CCC(=O)O)cc5)cc4)C[C@@H]3C2)NC(c2nccs2)=N[C@H]1c1ccc(F)cc1Cl` [Example 73, 3-((S)-4-(4-(4-((S)-7-(((R)-6-(2-chloro-4-fluorophenyl)-5-(methoxycarbonyl)-2-(thiazol-2-yl)-3,6-dihydropyrimidin-4-yl)methyl)-3-oxohexahydroimidazo[1,5-a]pyrazin-2(3H)-yl)phenoxy)benzoyl)morpholin-3-yl)propanoic acid] is over 150 µM.
